According to patent US20130295083A1, “2a-Methyl-19-nor-(20S)-1a,25-dihydroxyvitamin D3 (2AMD) or 2 methylene-19-nor-(20S)-1a,25-dihydroxyvitamin D3 (2MD) Support Survival and Function of Transplanted Islet Cells In Type 1 Diabetes” (Wisconsin Alumni Research Foundation, priority 2012, published 2013):

What was measured:
[1] = test system: insulin-2 knockout non-obese diabetic mouse; conditions: rodent model of spontaneous T1D; Kiekhaefer et al. 2011; cited from earlier work
[2] = test system: Female NOD mice; test: Islet transplantation in spontaneously diabetic NOD mice: duration of normoglycemia / graft survival; format: in vivo; conditions: for Duration of Normoglycemia: 2 mice; for diabetes reversal / indefinite survival of syngeneic islet grafts: 400 pg/mouse/day
[3] = Adverse effects: food consumption, weight gain, body weights in transplanted NOD mice; format: in vivo
Procedure: (§1) Mice were treated with either 400 picograms of 2AMD/mouse/day or with vehicle. 2AMD was administered by addition of the analog in the vehicle to LabDiet 5K52 (PMI Nutrition, Brentwood, Miss.). In order to deliver the designated dose of 2AMD, a stock solution of the analog was dissolved in EtOH, vortexed for 3 min, and the analog concentration was determined by spectrophotometry. Based on pre-determined diet consumption, diet was prepared to provide 400 pg of 2AMD/mouse/day. The diets were solidified with molten agar (USB Corporation, Cleveland, Ohio). Controls were fed diet prepared as described above but the vehicle containing no 2AMD. Mice in each group were fed either 2AMD diet or vehicle diet from the day of diabetes determination until the completion of the study.

[4] = Serum calcium analysis in transplanted NOD mice; format: in vivo; conditions: 400 pg/day
Procedure: as §1
Blood was collected from the orbital sinus 3 weeks after initiation of control or 2AMD treatment and every 3 weeks thereafter. Blood samples were spun at 2,938 g for 15 min, followed by a second and third spin at 16,883 g, each for 2 min. Serum calcium levels were determined by atomic absorption in 0.1% LaCl3.

[5] = chow-based diet, 800 islet equivalents
[6] = purified diet, 400 islet equivalents

2α-methyl-19-nor-(20S)-1α,25-dihydroxyvitamin D3 [2AMD]
effect on development of type 1 diabetes [1]: prevented the transition from insulitis to diabetes | Duration of Normoglycemia ([2]; chow diet, 400 islet equivalents, 400 pg 2AMD/mouse/day, vehicle control 28 days): ≥ 83 days | Duration of Normoglycemia ([2]; chow-based diet, 800 islet equivalents, 400 pg 2AMD/mouse/day in diet, vehicle control 110 days): > 230 days | diabetes reversal [2, 5]: 100% | indefinite survival of syngeneic islet grafts [2, 5]: 100% | additional days of continuing normoglycemia compared to the untreated control ([2]; murine model, 2AMD treatment vs untreated control): at least 130 days | diabetes reversal [2, 6]: 100% | indefinite survival of syngeneic islet grafts [2, 6]: 100% | adverse effects as revealed by food consumption, weight gain and comparative body weights ([3]; 400 pg/day, chow-based diet, 800 islet equivalents): No adverse effects | food consumption, weight gain, and comparative body weights ([3]; 2AMD purified diet group, 400 islet equivalents, attributed to hydration of two dietary components (early satiety), reversed after replacement at week 22): reduced | average serum calcium ([4]; chow diet, 400 islet equivalents, control 10.0 mg/dl): 10.7 mg/dL | average serum calcium ([4]; chow-based diet, 800 islet equivalents, control mice 9.8 mg/dl): 10.3 mg/dL | average serum calcium ([4]; purified diet, 400 islet equivalents, control 10.0 mg/dl): 10.8 mg/dL
